In this assay the target is T1, Human BCL-XL protein (N-terminal HiBiT tagged BCL-XL in HT1080 cells) (Homo sapiens, UniProt Q07817).
T1 construct: expressed in transfected cells; host or cells: HT-1080 (ATCC CCL-121), stably transduced with lentivirus pLV-UBC-N-HiBiT-BCL-XL-PGK-puro and selected with puromycin
In words: HiBiT based degradation assay. Format: cell-based. Conditions: HT1080 cells expressing HiBiT-BCL-XL; for Ymin (24 h) / Ymin (6 h): BCL-XL degradation normalized with DMSO control; for DC50: BCL-XL degradation. An outline of the steps: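 This HiBiT degradation assay measured loss of BCL-XL in HT1080 cells that stably express an N-terminal HiBiT-BCL-XL fusion delivered by lentivirus. Cells were added to compound-spotted 384-well plates, and luminescence was read on a PHERAstar FSX reader. Signal was expressed relative to DMSO controls, curves were fitted by four-parameter logistic regression, and for hook-shaped curves the Ymin point served as the bottom plateau when calculating EC50.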

Where two headings read alike, the source gives them in different places. A value given as a limit tells only on which side of the number the result lay.

T1 sequence (Q07817 whole entry): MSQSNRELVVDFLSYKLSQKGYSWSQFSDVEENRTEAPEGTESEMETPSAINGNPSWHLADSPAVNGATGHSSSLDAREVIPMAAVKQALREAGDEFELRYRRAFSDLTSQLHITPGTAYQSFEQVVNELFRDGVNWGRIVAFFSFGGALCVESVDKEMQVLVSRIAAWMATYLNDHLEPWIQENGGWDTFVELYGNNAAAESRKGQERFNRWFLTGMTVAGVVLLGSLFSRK

As to `Cn1nc(C2CCC(=O)NC2=O)c2ccc(NC(=O)CN3CCC(CCCOc4cccc(-c5ccc(N6CCc7cccc(C(=O)Nc8nc9ccccc9s8)c7C6)nc5C(=O)O)c4)CC3)cc21` (stereo not drawn) [Compound 314, 6-(8-(benzo[d]thiazol-2-ylcarbamoyl)-3,4-dihydroisoquinolin-2(1H)-yl)-3-(3-(3-(1-(2-((3-(2,6-dioxopiperidin-3-yl)-1-methyl-1H-indazol-6-yl)amino)-2-oxoethyl)piperidin-4-yl)propoxy)phenyl)picolinic acid], where the note is “24 h”, the “Ymin (24 h)” value is reported as “B (50% ≤ Ymin < 70%)”. The DC50 (24 h, read-out: EC50 (24 h)) is < 100 nM.

As to `Cc1c(OCCC2CCN(CCC3CCN(c4ccc5c(C6CCC(=O)NC6=O)nn(C)c5c4)CC3)CC2)cccc1-c1ccc(N2CCc3cccc(C(=O)Nc4nc5ccccc5s4)c3C2)nc1C(=O)O` (stereo not drawn) [Compound 223, 6-(8-(benzo[d]thiazol-2-ylcarbamoyl)-3,4-dihydroisoquinolin-2(1H)-yl)-3-(3-(2-(1-(2-(1-(3-(2,6-dioxopiperidin-3-yl)-1-methyl-1H-indazol-6-yl)piperidin-4-yl)ethyl)piperidin-4-yl)ethoxy)-2-methylphenyl)picolinic acid], the “Ymin (24 h)” value (24 h) is reported as “A (Ymin < 50%)”. Further, for the setting “24 h, read-out: EC50 (24 h)”, the DC50 is < 100 nM.

On to `Cc1c(OCCN2CCN(CC3CCN(c4cccc5c(C6CCC(=O)NC6=O)nn(C)c45)CC3)CC2)cccc1-c1ccc(N2CCc3cccc(C(=O)Nc4nc5ccccc5s4)c3C2)nc1C(=O)O` (stereo not drawn) [Compound 228, 6-(8-(benzo[d]thiazol-2-ylcarbamoyl)-3,4-dihydroisoquinolin-2(1H)-yl)-3-(3-(2-(4-((1-(3-(2,6-dioxopiperidin-3-yl)-1-methyl-1H-indazol-7-yl)piperidin-4-yl)methyl)piperazin-1-yl)ethoxy)-2-methylphenyl)picolinic acid], for which the “Ymin (24 h)” value (24 h) is listed as “B (50% ≤ Ymin < 70%)”. Moreover, under “24 h, read-out: EC50 (24 h)”, the DC50 was < 100 nM.

Regarding `Cc1c(OCCCC2CCN(CC(=O)Nc3cc4c(cc3F)c(C3CCC(=O)NC3=O)nn4C)CC2)cccc1-c1ccc(N2CCc3cccc(C(=O)Nc4nc5ccccc5s4)c3C2)nc1C(=O)O` (stereo not drawn) [Compound 295, 6-[8-(1,3-benzothiazol-2-ylcarbamoyl)-3,4-dihydro-1H-isoquinolin-2-yl]-3-[3-[3-[1-[2-[[3-(2,6-dioxo-3-piperidyl)-5-fluoro-1-methyl-indazol-6-yl]amino]-2-oxo-ethyl]-4-piperidyl]propoxy]-2-methyl-phenyl]pyridine-2-carboxylic acid], the “Ymin (24 h)” value (24 h) is listed as “B (50% ≤ Ymin < 70%)”. The DC50 (24 h, read-out: EC50 (24 h)) was 100 to 1000 nM.

Take `Cc1c(OCCCCCCCCN2CCN(c3cccc4c(C5CCC(=O)NC5=O)nn(C)c34)CC2)cccc1-c1ccc(N2CCc3cccc(C(=O)Nc4nc5ccccc5s4)c3C2)nc1C(=O)O` (stereo not drawn) [Compound 217, 6-[8-(1,3-benzothiazol-2-ylcarbamoyl)-3,4-dihydro-1H-isoquinolin-2-yl]-3-[3-[8-[4-[3-(2,6-dioxo-3-piperidyl)-1-methyl-indazol-7-yl]piperazin-1-yl]octoxy]-2-methyl-phenyl]pyridine-2-carboxylic acid]: under “6 h”, the “Ymin (6 h)” value is reported as “B (50% ≤ Ymin < 70%)”. In addition, the “Ymin (24 h)” value (24 h) was “B (50% ≤ Ymin < 70%)”. Also, the DC50 is, setting by setting: (6 h, read-out: EC50 (6 h)) < 100 nM; (24 h, read-out: EC50 (24 h)) < 100 nM.

Regarding `Cc1c(OCC(F)(F)CN2C[C@@H](C)N(CC(=O)Nc3ccc4c(C5CCC(=O)NC5=O)nn(C)c4c3)[C@@H](C)C2)cccc1-c1ccc(N2CCc3cccc(C(=O)Nc4nc5ccccc5s4)c3C2)nc1C(=O)O` (stereo partly drawn) [Compound 177a, 6-[8-(1,3-benzothiazol-2-ylcarbamoyl)-3,4-dihydro-1H-isoquinolin-2-yl]-3-[3-[3-[(3R,5S)-4-[2-[[3-(2,6-dioxo-3-piperidyl)-1-methyl-indazol-6-yl]amino]-2-oxo-ethyl]-3,5-dimethyl-piperazin-1-yl]-2,2-difluoro-propoxy]-2-methyl-phenyl]pyridine-2-carboxylic acid], for the setting “24 h”, the “Ymin (24 h)” value was “B (50% ≤ Ymin < 70%)”. The DC50 (24 h, read-out: EC50 (24 h)) lay within 100 to 1000 nM.

Turning to `Cc1c(OCCCC2CCN(CCC3CCN(c4ccc5c(C6CCC(=O)NC6=O)nn(C)c5c4)CC3)CC2)cccc1-c1ccc(N2CCc3cccc(C(=O)Nc4nc5ccccc5s4)c3C2)nc1C(=O)O` (stereo not drawn) [Compound 192, 6-(8-(benzo[d]thiazol-2-ylcarbamoyl)-3,4-dihydroisoquinolin-2(1H)-yl)-3-(3-(3-(1-(2-(1-(3-(2,6-dioxopiperidin-3-yl)-1-methyl-1H-indazol-6-yl)piperidin-4-yl)ethyl)piperidin-4-yl)propoxy)-2-methylphenyl)picolinic acid], the “Ymin (24 h)” value (24 h) is recorded as “A (Ymin < 50%)”. The DC50 (24 h, read-out: EC50 (24 h)) is < 100 nM.

As for `Cc1c(Oc2ccccc2CCC(=O)Nc2cccc3c(C4CCC(=O)NC4=O)nn(C)c23)cccc1-c1ccc(N2CCc3cccc(C(=O)Nc4nc5ccccc5s4)c3C2)nc1C(=O)O` (stereo not drawn) [Compound 243, 6-(8-(benzo[d]thiazol-2-ylcarbamoyl)-3,4-dihydroisoquinolin-2(1H)-yl)-3-(3-(2-(3-((3-(2,6-dioxopiperidin-3-yl)-1-methyl-1H-indazol-7-yl)amino)-3-oxopropyl)phenoxy)-2-methylphenyl)picolinic acid], the “Ymin (6 h)” value (6 h) is reported as “C (Ymin ≥ 70%)”. The “Ymin (24 h)” value (24 h) is on record as “B (50% ≤ Ymin < 70%)”. The DC50 (6 h, read-out: EC50 (6 h)) lay in the range of 100 to 1000 nM and the DC50 (24 h, read-out: EC50 (24 h)) is < 100 nM.

As for `Cc1cc2c(C3CCC(=O)NC3=O)nn(C)c2cc1N1CCN(CCC[C@H]2CC[C@H](Oc3cccc(-c4ccc(N5CCc6cccc(C(=O)Nc7nc8ccccc8s7)c6C5)nc4C(=O)O)c3C)CC2)CC1` (stereo partly drawn) [Compound 335a, 6-(8-(benzo[d]thiazol-2-ylcarbamoyl)-3,4-dihydroisoquinolin-2(1H)-yl)-3-(3-(((1s,4r)-4-(3-(4-(3-(2,6-dioxopiperidin-3-yl)-1,5-dimethyl-1H-indazol-6-yl)piperazin-1-yl)propyl)cyclohexyl)oxy)-2-methylphenyl)picolinic acid], the “Ymin (24 h)” value (24 h) is listed as “A (Ymin < 50%)”. Further, the DC50 (24 h, read-out: EC50 (24 h)) is < 100 nM.

Take `Cc1c(OCCCCCCCN2CCN(c3cccc4c(C5CCC(=O)NC5=O)nn(C)c34)CC2)cccc1-c1ccc(N2CCc3cccc(C(=O)Nc4nc5ccccc5s4)c3C2)nc1C(=O)O` (stereo not drawn) [Compound 206, 6-[8-(1,3-benzothiazol-2-ylcarbamoyl)-3,4-dihydro-1H-isoquinolin-2-yl]-3-[3-[7-[4-[3-(2,6-dioxo-3-piperidyl)-1-methyl-indazol-7-yl]piperazin-1-yl]heptoxy]-2-methyl-phenyl]pyridine-2-carboxylic acid]: where the note is “6 h”, the “Ymin (6 h)” value is recorded as “C (Ymin ≥ 70%)”. Moreover, the “Ymin (24 h)” value (24 h) is reported as “B (50% ≤ Ymin < 70%)”. For the same molecule, the DC50 reads like this: (6 h, read-out: EC50 (6 h)) 1000 to 10000 nM; (24 h, read-out: EC50 (24 h)) < 100 nM.

Regarding `Cc1c(OCCO[C@H]2C[C@H]3CC[C@@H](C2)N3CC(=O)Nc2ccc3c(C4CCC(=O)NC4=O)nn(C)c3c2)cccc1-c1ccc(N2CCc3cccc(C(=O)Nc4nc5ccccc5s4)c3C2)nc1C(=O)O` (stereo partly drawn) [Compound 174a, 6-(8-(benzo[d]thiazol-2-ylcarbamoyl)-3,4-dihydroisoquinolin-2(1H)-yl)-3-(3-(2-(((1R,3r,5S)-8-(2-((3-(2,6-dioxopiperidin-3-yl)-1-methyl-1H-indazol-6-yl)amino)-2-oxoethyl)-8-azabicyclo[3.2.1]octan-3-yl)oxy)ethoxy)-2-methylphenyl)picolinic acid], the “Ymin (24 h)” value (24 h) is given as “A (Ymin < 50%)”. Also, the DC50 (24 h, read-out: EC50 (24 h)) was < 100 nM.

For the molecule `Cc1c(OCC[C@H]2CCC3(CCN(CC(=O)Nc4ccc5c(C6CCC(=O)NC6=O)nn(C)c5c4)CC3)C2)cccc1-c1ccc(N2CCc3cccc(C(=O)Nc4nc5ccccc5s4)c3C2)nc1C(=O)O` (stereo in doubt) [Compound 272a, 6-(8-(benzo[d]thiazol-2-ylcarbamoyl)-3,4-dihydroisoquinolin-2(1H)-yl)-3-(3-(2-((2S)-8-(2-((3-(2,6-dioxopiperidin-3-yl)-1-methyl-1H-indazol-6-yl)amino)-2-oxoethyl)-8-azaspiro[4.5]decan-2-yl)ethoxy)-2-methylphenyl)picolinic acid], the “Ymin (24 h)” value (24 h) is on record as “A (Ymin < 50%)”. Besides, the DC50 (24 h, read-out: EC50 (24 h)) was < 100 nM.

In the case of `Cc1c(O[C@H]2CC[C@H](CCCC(C)(C)N3CCN(c4cccc5c(C6CCC(=O)NC6=O)nn(C)c45)CC3)CC2)cccc1-c1ccc(N2CCc3cccc(C(=O)Nc4nc5ccccc5s4)c3C2)nc1C(=O)O` (stereo partly drawn) [Compound 342a, 6-(8-(benzo[d]thiazol-2-ylcarbamoyl)-3,4-dihydroisoquinolin-2(1H)-yl)-3-(3-(((1s,4r)-4-(4-(4-(3-(2,6-dioxopiperidin-3-yl)-1-methyl-1H-indazol-7-yl)piperazin-1-yl)-4-methylpentyl)cyclohexyl)oxy)-2-methylphenyl)picolinic acid], the “Ymin (24 h)” value (24 h) is “A (Ymin < 50%)”. Besides, for the setting “24 h, read-out: EC50 (24 h)”, the DC50 was < 100 nM.

As to `Cc1c(O[C@H]2CC[C@H](C[C@@H](C)CCN3CCN(c4ccc5c(C6CCC(=O)NC6=O)nn(C)c5c4)CC3)CC2)cccc1-c1ccc(N2CCc3cccc(C(=O)Nc4nc5ccccc5s4)c3C2)nc1C(=O)O` (single isomer, unassigned) [Compound 307b], the “Ymin (24 h)” value (24 h) is on record as “A (Ymin < 50%)”. For the same molecule, the DC50 (24 h, read-out: EC50 (24 h)) was < 100 nM.

Consider `Cc1cc(O[C@H](C)CCC2CCN(CC(=O)Nc3ccc4c(C5CCC(=O)NC5=O)nn(C)c4c3)CC2)ccc1-c1ccc(N2CCc3cccc(C(=O)Nc4nc5ccccc5s4)c3C2)nc1C(=O)O` (stereo in doubt) [Compound 276a, 6-[8-(1,3-benzothiazol-2-ylcarbamoyl)-3,4-dihydro-1H-isoquinolin-2-yl]-3-[4-[(1R)-3-[1-[2-[[3-(2,6-dioxo-3-piperidyl)-1-methyl-indazol-6-yl]amino]-2-oxo-ethyl]-4-piperidyl]-1-methyl-propoxy]-2-methyl-phenyl]pyridine-2-carboxylic acid], for which the “Ymin (24 h)” value (24 h) was “A (Ymin < 50%)”. Also, the DC50 (24 h, read-out: EC50 (24 h)) was < 100 nM.

Source of the values: patent US20240238423A9, “TETRAHYDROISOQUINOLINE HETEROBIFUNCTIONAL BCL-XL DEGRADERS” (Treeline Biosciences, Inc., priority 2022, published 2024).
